Assay results from paper PMC6784447, “Evaluation of 3-Chlorobenzoate 1,2-Dioxygenase Inhibition by 2- and 4-Chlorobenzoate with a Cell-Based Technique” (Biosensors, 2019).

Test system: T1, 3-chlorobenzoate-1,2-dioxygenase (3-CBDO; 3-CBA-1,2-DO)
T1 construct: native enzyme, not purified, in intact freshly harvested 3-CBA-grown cells; component and subunit make-up printed only for the analogous benzoate 1,2-dioxygenase; with 3-chlorobenzoate 1,2-dioxygenase subunit beta (benzoate 1,2-dioxygenase small subunit-like); 3-chlorobenzoate 1,2-dioxygenase reductase component (benzoate 1,2-dioxygenase reductase-like)
Assay: respiration of intact cells, Clark oxygen electrode reactor biosensor; Hill fit
Format: cell-based, Rhodococcus opacus
Details: 50 mM Tris-HCl pH 8.0, air-saturated, room temperature; intact 3-CBA-grown cells (indirect estimate of enzyme activity); Hill n 2.36; no added inhibitor; read-out: S0.5

O=C(O)c1cccc(Cl)c1 [3-chlorobenzoate]
Km: 45.3 ± 6.3 µM
